In patent US20260007133A1, “HERBICIDAL COMPOSITION COMPRISING AZINE COMPOUNDS” (BASF SE, priority 2022, published 2026):
Like-named read-outs stand apart in the source and are kept apart here.

What was measured:
Type in all cases: in vivo
Commelina benghalensis = assay: Greenhouse pre-emergence (PRE) herbicidal test on COMBE
How it was run: (§1)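 Pre-emergence greenhouse assay: sown loamy-sand pots (humus approx. 3.0%) were kept under transparent hoods until rooting, then grown at species-appropriate 10-25° C or 20-35° C. Response ratings of 0 (no damage) to 100 (no plants emerged) were recorded 20 days after application.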

Echinochloa crus-galli = assay: Greenhouse pre-emergence (PRE) herbicidal test on ECHCG; conditions: Echinochloa crus-galli, pre-emergence, PRE
Euphorbia heterophylla = assay: Greenhouse pre-emergence (PRE) herbicidal test on EPHHL; conditions: Euphorbia heterophylla, pre-emergence
How it was run: as §1

Geranium pusillum [1] = assay: Greenhouse pre-emergence (PRE) herbicidal test on GERPU; conditions: Geranium pusillum, pre-emergence, use rate 8 gai/ha
How it was run: (§2)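 Herbicidal effect is scored from 0 (no damage) to 100 (no emergence or above-ground parts destroyed), 20 days after treatment. Application is pre-emergent onto sown pots, with components given as a 5% by weight emulsion concentrate in the spray liquor.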

Geranium pusillum [2] = assay: Greenhouse post-emergence (POST) herbicidal test on GERPU; conditions: Geranium pusillum, post-emergence; for inhibition at 2 g/ha: use rate 2 gai/ha, read-out: % activity
How it was run: (§3)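 Visual damage rating on a 0–100 scale, 0 meaning normal growth and 100 complete kill of above-ground parts, taken 20 days after treatment. Spray applied post-emergence to plants 3–15 cm tall in loamy sand with approximately 3.0% humus.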

Brachiaria decumbens = assay: Greenhouse pre-emergence (PRE) herbicidal test on BRADC; conditions: Urochloa decumbens, use rate 8 gai/ha
How it was run: as §2

Amaranthus retroflexus = assay: Greenhouse post-emergence (POST) herbicidal test on AMARE; conditions: Amaranthus retroflexus, post-emergence
How it was run: as §3

COc1c(Br)cc(F)c(F)c1Nc1nc(N)nc(C(C)(C)F)n1 [Compound I-2]
inhibition at 2 g/ha (Commelina benghalensis; Commelina benghalensis, pre-emergence, 480 h, PRE, COMBE, 2 gai/ha, 20 DAT, read-out: % activity solo application): 10%
inhibition at 8 g/ha (Commelina benghalensis; Commelina benghalensis, pre-emergence, 480 h, PRE, COMBE, 8 gai/ha, 20 DAT, read-out: % activity solo application): 45%
inhibition at 8 g/ha (Commelina benghalensis; Commelina benghalensis, pre-emergence, 480 h, PRE, COMBE, use rate 8 gai/ha, 20 DAT, read-out: solo application % activity): 45%
inhibition at 8 g/ha (Commelina benghalensis; Commelina benghalensis, pre-emergence, COMBE PRE, use rate 8 gai/ha, read-out: % activity): 25%
inhibition at 4 g/ha (Commelina benghalensis; Commelina benghalensis, pre-emergence, PRE, COMBE, use rate 4 gai/ha): 10%
% activity (Commelina benghalensis; PRE, COMBE, use rate 4 gai/ha): 15%
inhibition at 4 g/ha (Echinochloa crus-galli; 240 h, use rate 4 gai/ha, 10 DAT): 20%
inhibition at 8 g/ha (Echinochloa crus-galli; 240 h, use rate 8 gai/ha, 10 DAT, read-out: % activity): 20%
inhibition at 16 g/ha (Echinochloa crus-galli; 240 h, use rate 16 gai/ha, 10 DAT): 25%
pest or weed control at 2 g/ha (Echinochloa crus-galli; 432 h, ECHCG, I-2 solo 2 gai/ha, 18 DAT): 10%
pest or weed control at 8 g/ha (Echinochloa crus-galli; 432 h, ECHCG, I-2 solo 8 gai/ha, 18 DAT): 25%
inhibition at 2 g/ha (Echinochloa crus-galli; 480 h, ECHCG, 2 gai/ha, 20 DAT, read-out: % activity solo application): 0%
inhibition at 8 g/ha (Echinochloa crus-galli; 480 h, ECHCG, 8 gai/ha, 20 DAT, read-out: % activity solo application): 90%
inhibition at 2 g/ha (Echinochloa crus-galli; 480 h, ECHCG, use rate 2 gai/ha, 20 DAT, read-out: solo application % activity): 0%
inhibition at 8 g/ha (Echinochloa crus-galli; 480 h, ECHCG, use rate 8 gai/ha, 20 DAT, read-out: solo application % activity): 90%
pest or weed control at 2 g/ha (Echinochloa crus-galli; 480 h, 2 gai/ha, 20 DAT): 55%
pest or weed control at 2 g/ha (Euphorbia heterophylla; 432 h, PRE, EPHHL, I-2 solo 2 gai/ha, 18 DAT): 10%
pest or weed control at 8 g/ha (Euphorbia heterophylla; 432 h, PRE, EPHHL, I-2 solo 8 gai/ha, 18 DAT): 35%
inhibition at 8 g/ha (Euphorbia heterophylla; 480 h, EPHHL PRE, 20 DAT, use rate 8 gai/ha, read-out: % activity): 10%
pest or weed control at 2 g/ha (Euphorbia heterophylla; 480 h, PRE, 2 gai/ha, 20 DAT): 10%
pest or weed control at 8 g/ha (Euphorbia heterophylla; 480 h, PRE, 8 gai/ha, 20 DAT): 10%
inhibition at 2 g/ha (Euphorbia heterophylla; 480 h, PRE, EPHHL, 2 gai/ha, 20 DAT, read-out: % activity solo application): 0%
inhibition at 8 g/ha (Euphorbia heterophylla; 480 h, PRE, EPHHL, 8 gai/ha, 20 DAT, read-out: % activity solo application): 15%
inhibition at 2 g/ha (Euphorbia heterophylla; 480 h, PRE, EPHHL, use rate 2 gai/ha, 20 DAT, read-out: solo application % activity): 0%
inhibition at 8 g/ha (Euphorbia heterophylla; 480 h, PRE, EPHHL, use rate 8 gai/ha, 20 DAT, read-out: solo application % activity): 15%
inhibition at 8 g/ha (Geranium pusillum [1]; 480 h, PRE, GERPU, 20 DAT): 80%
inhibition at 8 g/ha (Geranium pusillum [1]; GERPU PRE): 0%
inhibition at 8 g/ha (Geranium pusillum [1]; PRE, GERPU): 0%
pest or weed control at 2 g/ha (Geranium pusillum [2]; 432 h, POST, GERPU, I-2 solo 2 gai/ha, 18 DAT): 40%
pest or weed control at 8 g/ha (Geranium pusillum [2]; 432 h, POST, GERPU, I-2 solo 8 gai/ha, 18 DAT): 50%
inhibition at 2 g/ha (Geranium pusillum [2]; 480 h, GERPU POST, 20 DAT): 20%
pest or weed control at 2 g/ha (Geranium pusillum [2]; 480 h, POST, 2 gai/ha, 20 DAT): 20%
pest or weed control at 8 g/ha (Geranium pusillum [2]; 480 h, POST, 8 gai/ha, 20 DAT): 25%
inhibition at 2 g/ha (Geranium pusillum [2]; POST, GERPU): 30%
inhibition at 8 g/ha (Brachiaria decumbens; BRADC PRE): 80%
inhibition at 8 g/ha (Brachiaria decumbens; PRE, BRADC): 70%
pest or weed control at 2 g/ha (Amaranthus retroflexus; 432 h, POST, AMARE, I-2 solo 2 gai/ha, 18 DAT): 55%
pest or weed control at 8 g/ha (Amaranthus retroflexus; 432 h, POST, AMARE, I-2 solo 8 gai/ha, 18 DAT): 70%
inhibition at 2 g/ha (Amaranthus retroflexus; 480 h, AMARE POST, 20 DAT, use rate 2 gai/ha, read-out: % activity): 65%
inhibition at 8 g/ha (Amaranthus retroflexus; 480 h, AMARE POST, 20 DAT, use rate 8 gai/ha, read-out: % activity): 65%
pest or weed control at 8 g/ha (Amaranthus retroflexus; 480 h, POST, 8 gai/ha, 20 DAT): 65%
inhibition at 2 g/ha (Amaranthus retroflexus; 480 h, POST, AMARE, 2 gai/ha, 20 DAT, read-out: % activity solo application): 40%
inhibition at 8 g/ha (Amaranthus retroflexus; 480 h, POST, AMARE, 8 gai/ha, 20 DAT, read-out: % activity solo application): 75%
inhibition at 2 g/ha (Amaranthus retroflexus; 480 h, POST, AMARE, use rate 2 gai/ha, 20 DAT, read-out: solo application % activity): 40%
inhibition at 2 g/ha (Amaranthus retroflexus; 480 h, POST, use rate 2 gai/ha, 20 DAT, read-out: % activity): 75%
